Target: T1, human PDE2A1 (Homo sapiens, UniProt O00408)
T1 construct: GST; purchased BPS Bioscience (San Diego, Calif.) 60020; host or cells: insect cells
Assay: PDE2 IMAP FP inhibition assay, human enzyme (PDE selectivity panel format)
Type: biochemical
Conditions: Lab A; read-out: Human PDE2 Ki (nM) Lab A
Protocol: Selectivity for PDE2, as compared to other PDE families, was assessed using the IMAP® technology. Human PDE10A2 enzyme was prepared from cytosolic fractions of transiently transfected HEK cells. All other PDE's were GST Tag human enzyme expressed in insect cells and were obtained from BPS Bioscience (San Diego, Calif.): PDE1A (Cat#60010), human PDE2A1 (Cat#60020), PDE3A (Cat#60030), PDE4A1A (Cat#60040), PDE5A1 (Cat#60050), PDE6C (Cat#60060), PDE7A (Cat#60070), PDE8A1 (Cat#60080), PDE9A2 (Cat#60090), PDE11A4 (Cat#60110).
Assays for PDE 1 through 11 were performed in parallel at room temperature in 384-well microtiter plates with an incubation volume of 20.2 μL. Solutions of test compounds were prepared in DMSO and serially diluted with DMSO to yield 30 μL of each of ten solutions differing by 3-fold in concentration, at 32 serial dilutions per plate. […] A Labcyte POD 810 (Labcyte, Sunnyvale, Calif.) was used to dispense 200 nL from each well of the titration plate to make eleven copies of the assay plate for each titration, one copy for each PDE enzyme. A solution of each enzyme (dilution from aliquots, sufficient to produce 20% substrate conversion) and a separate solution of FAM-labeled cAMP or FAM-labeled cGMP from Molecular Devices (Sunnyvale, Calif., product # R7506 or cGMP#R7508), at a final concentration of 50 nM were made in the assay buffer (10 mM Tris HCl, pH 7.2, 10 mM MgCl2, 0.05% NaN3 0.01% Tween-20, and 1 mM DTT). Note that the substrate for PDE2 is 50 nM FAM cAMP containing 1000 nM of cGMP. The enzyme and the substrate were then added to the assay plates in two consecutive additions of 10 μL and then shaken to mix. The reaction was allowed to proceed at room temperature for 60 minutes. A binding solution was then made from the kit components, comprised of 80% Solution A, 20% Solution B and binding reagent at a volume of 1/600 the total binding solution. The enzymatic reaction was stopped by addition of 60 μL of the binding solution to each well of the assay plate. The plates were sealed and shaken for 10 seconds. The plates were incubated at room temperature for one hour, then the parallel and perpendicular fluorescence was measured using a Tecan Genios Pro plate reader (Tecan, Switzerland). The apparent inhibition constants for the compounds against all 11 PDE's was determined from the parallel and perpendicular fluorescent readings as described for PDE10 FP assay using the following apparent KM values for each enzyme and substrate combination: PDE1A (FAM cGMP) 70 nM, human PDE2A1 (FAM cAMP) 10,000 nM, PDE3A (FAM cAMP) 50 nM, PDE4A1A (FAM cAMP) 1500 nM, PDE5A1 (FAM cGMP) 400 nM, PDE6C (FAM cGMP) 700 nM, PDE7A (FAM cAMP) 150 nM, PDE8A1 (FAM cAMP) 50 nM, PDE9A2 (FAM cGMP) 60 nM, PDE10A2 (FAM cAMP) 150 nM, PDE11A4 (FAM cAMP) 1000 nM. The intrinsic PDE2 inhibitory activity of a compound which may be used in accordance with the present invention may be determined by these assays. […]

T1 sequence (O00408 1-920 isoform O00408-2): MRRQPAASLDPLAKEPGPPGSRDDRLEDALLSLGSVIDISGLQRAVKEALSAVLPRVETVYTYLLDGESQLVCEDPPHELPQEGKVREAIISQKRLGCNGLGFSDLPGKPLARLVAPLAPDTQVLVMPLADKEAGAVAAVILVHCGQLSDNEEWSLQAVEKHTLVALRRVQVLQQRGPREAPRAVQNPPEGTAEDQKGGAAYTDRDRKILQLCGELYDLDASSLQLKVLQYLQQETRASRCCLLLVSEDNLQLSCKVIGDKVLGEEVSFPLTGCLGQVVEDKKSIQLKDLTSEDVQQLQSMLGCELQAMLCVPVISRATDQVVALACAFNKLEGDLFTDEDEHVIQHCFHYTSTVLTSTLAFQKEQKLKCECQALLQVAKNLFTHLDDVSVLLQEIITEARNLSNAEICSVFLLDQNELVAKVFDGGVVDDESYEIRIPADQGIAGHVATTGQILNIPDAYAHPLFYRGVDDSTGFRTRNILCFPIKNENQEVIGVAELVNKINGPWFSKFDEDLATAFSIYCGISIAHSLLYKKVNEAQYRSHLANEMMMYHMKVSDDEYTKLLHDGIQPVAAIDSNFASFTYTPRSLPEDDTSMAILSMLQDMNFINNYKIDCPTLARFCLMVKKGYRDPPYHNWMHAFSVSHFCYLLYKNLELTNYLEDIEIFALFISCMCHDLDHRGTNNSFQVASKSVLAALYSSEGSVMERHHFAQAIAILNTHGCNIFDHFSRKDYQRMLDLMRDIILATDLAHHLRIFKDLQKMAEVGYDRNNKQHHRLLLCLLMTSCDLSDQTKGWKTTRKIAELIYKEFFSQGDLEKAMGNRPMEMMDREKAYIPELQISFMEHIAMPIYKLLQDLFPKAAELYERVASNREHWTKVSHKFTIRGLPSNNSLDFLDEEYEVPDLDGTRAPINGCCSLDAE

SMILES	Ki [nM]
Cc1nc(-c2cnn([C@H](C)c3c(F)cc(C(F)(F)F)cc3F)c2)cc(=O)[nH]1 (single isomer, unassigned) [Example 8]	107
Cc1nc(-c2cnn(C(C)c3ccc(C(F)(F)F)cc3F)c2C)cc(=O)[nH]1 (single isomer, unassigned) [Example 71, (R)- or (S)-6-(1-(1-(2-fluoro-4-(trifluoromethyl)phenyl)ethyl)-5-methyl-1H-pyrazol-4-yl)-2-methylpyrimidin-4(3H)-one]	16.5
Cc1nc(-c2cnn(C(CO)c3ccc(C(F)(F)F)cc3F)c2)cc(=O)[nH]1 (single isomer, unassigned) [Example 110, (S)- or (R)-6-(1-(1-(2-fluoro-4-(trifluoromethyl)phenyl)-2-hydroxyethyl)-1H-pyrazol-4-yl)-2-methylpyrimidin-4(3H)-one]	299
Cc1nc(-c2cnn(C(C)c3ccc(C4CC4)cc3Cl)c2)cc(=O)[nH]1 (single isomer, unassigned) [Example 108, (S)- or (R)-6-(1-(1-(2-chloro-4-cyclopropylphenyl)ethyl)-1H-pyrazol-4-yl)-2-methylpyrimidin-4(3H)-one]	358
CCc1ccc([C@@H](CO)n2cc(-c3cc(=O)[nH]c(C)n3)cn2)c(Cl)c1 (single isomer, unassigned) [Example 17]	683
Cc1nc(-c2cnn([C@H](C)c3c(F)cc(C(F)(F)F)cc3F)c2)cc(=O)[nH]1 (single isomer, unassigned) [Example 7]	126
CCCc1ccc([C@](C)(O)c2cnn(-c3cc(=O)[nH]c(C)n3)c2)c(F)c1 (single isomer, unassigned) [Example 14]	1400
CCc1ccc(C(CO)c2cnn(-c3cc(=O)[nH]c(C)n3)c2)c(F)c1 (single isomer, unassigned) [Example 115, (R)- or (S)-6-(4-(1-(4-ethyl-2-fluorophenyl)-2-hydroxyethyl)-1H-pyrazol-1-yl)-2-methylpyrimidin-4(3H)-one]	163
CCc1ccc([C@](C)(O)c2cnn(-c3cc(=O)[nH]c(C)n3)c2)c(F)c1 (single isomer, unassigned) [Example 12]	244
CCc1ccc([C@@H](CO)n2cc(-c3cc(=O)[nH]c(C)n3)cn2)c(Cl)c1 (single isomer, unassigned) [Example 18]	10.7
CCc1ccc(C(C(=O)OC)n2cc(-c3cc(=O)[nH]c(C)n3)cn2)c(Cl)c1 (centres unmarked) [Example 114, methyl 2-(2-chloro-4-ethylphenyl)-2-(4-(2-methyl-6-oxo-1,6-dihydropyrimidin-4-yl)-1H-pyrazol-1-yl)acetate]	1820
Cc1nc(-c2cnn(C(C)c3ccc(CC(F)(F)F)cc3C)c2)cc(=O)[nH]1 (single isomer, unassigned) [Example 105, (R)- or (S)-2-methyl-6-(1-(1-(2-methyl-4-(2,2,2-trifluoroethyl)phenyl)ethyl)-1H-pyrazol-4-yl)pyrimidin-4(3H)-one]	> 2960
Cc1nc(-c2cn(C(C)c3ccc(C(F)(F)F)cc3F)nc2C)cc(=O)[nH]1 (single isomer, unassigned) [Example 69, (R)- or (S)-(6-(1-(1-(2-fluoro-4-(trifluoromethyl)phenyl)ethyl)-3-methyl-1H-pyrazol-4-yl)-2-methylpyrimidin-4(3H)-one]	32.6
CCc1ccc(C(CO)c2cnn(-c3cc(=O)[nH]c(C)n3)c2)c(F)c1 (single isomer, unassigned) [Example 116, (S)- or (R)-6-(4-(1-(4-ethyl-2-fluorophenyl)-2-hydroxyethyl)-1H-pyrazol-1-yl)-2-methylpyrimidin-4(3H)-one]	537
Cc1nc(-c2cnn(C(C)c3ccc(C4CC4)cc3Cl)c2)cc(=O)[nH]1 (single isomer, unassigned) [Example 107, (R)- or (S)-6-(1-(1-(2-chloro-4-cyclopropylphenyl)ethyl)-1H-pyrazol-4-yl)-2-methylpyrimidin-4(3H)-one]	9.4
CCc1ccc(C(C)(O)c2cnn(-c3cc(=O)[nH]c(C)n3)c2)c(Cl)c1 (centres unmarked) [Example 119, 6-(4-(1-(2-chloro-4-ethylphenyl)-1-hydroxyethyl)-1H-pyrazol-1-yl)-2-methylpyrimidin-4(3H)-one]	16.7
CCc1ccc(C(CO)n2cc(-c3cc(=O)[nH]c(C)n3)cn2)c(F)c1 (single isomer, unassigned) [Example 112, (S)- or (R)-6-(1-(1-(4-ethyl-2-fluorophenyl)-2-hydroxyethyl)-1H-pyrazol-4-yl)-2-methylpyrimidin-4(3H)-one]	438
CCc1ccc(C(CO)c2cnn(-c3cc(=O)[nH]c(C)n3)c2)c(Cl)c1 (single isomer, unassigned) [Example 120, (R)- or (S)-6-(4-(1-(2-chloro-4-ethylphenyl)-2-hydroxyethyl)-1H-pyrazol-1-yl)-2-methylpyrimidin-4(3H)-one]	321
Cc1nc(-c2cnn(C(C)c3ccc(C(F)(F)F)cc3F)c2C)cc(=O)[nH]1 (single isomer, unassigned) [Example 72, (S)- or (R)-6-(1-(1-(2-fluoro-4-(trifluoromethyl)phenyl)ethyl)-5-methyl-1H-pyrazol-4-yl)-2-methylpyrimidin-4(3H)-one]	412
COC(=O)C(c1ccc(C(F)(F)F)cc1F)n1cc(-c2cc(=O)[nH]c(C)n2)cn1 (centres unmarked) [Example 113, methyl 2-(2-fluoro-4-(trifluoromethyl)phenyl)-2-(4-(2-methyl-6-oxo-1,6-dihydropyrimidin-4-yl)-1H-pyrazol-1-yl)acetate]	1970
Cc1nc(-c2cnn(C(CO)c3ccc(C(F)(F)F)cc3Cl)c2)cc(=O)[nH]1 (single isomer, unassigned) [Example 122, (R)- or (S)-6-(1-(1-(2-chloro-4-(trifluoromethyl)phenyl)-2-hydroxyethyl)-1H-pyrazol-4-yl)-2-methylpyrimidin-4(3H)-one]	616
CCCc1ccc([C@](C)(O)c2cnn(-c3cc(=O)[nH]c(C)n3)c2)c(F)c1 (single isomer, unassigned) [Example 13]	287
CCc1ccc(C(CO)c2cnn(-c3cc(=O)[nH]c(C)n3)c2)c(Cl)c1 (single isomer, unassigned) [Example 121, (S)- or (R)-6-(4-(1-(2-chloro-4-ethylphenyl)-2-hydroxyethyl)-1H-pyrazol-1-yl)-2-methylpyrimidin-4(3H)-one]	8.4
CCc1ccc([C@](C)(O)c2cnn(-c3cc(=O)[nH]c(C)n3)c2)c(F)c1 (single isomer, unassigned) [Example 11]	42.5
Cc1nc(-n2cc(C(C)(O)c3ccc(C(F)(F)F)cc3Cl)cn2)cc(=O)[nH]1 (single isomer, unassigned) [Example 117, (R)- or (S)-6-(4-(1-(2-chloro-4-(trifluoromethyl)phenyl)-1-hydroxyethyl)-1H-pyrazol-1-yl)-2-methylpyrimidin-4(3H)-one]	4.4
Cc1nc(-c2cnn(C(CO)c3ccc(C(F)(F)F)cc3Cl)c2)cc(=O)[nH]1 (single isomer, unassigned) [Example 123, (S)- or (R)-6-(1-(1-(2-chloro-4-(trifluoromethyl)phenyl)-2-hydroxyethyl)-1H-pyrazol-4-yl)-2-methylpyrimidin-4(3H)-one]	6.5

Reference: patent US10287269B2, “Pyrazolyl pyrimidinone compounds as PDE2 inhibitors” (Merck Sharp & Dohme Corp., priority 2015, dated 2019)
